{"source": "patent US8247211B2", "about": "“Glycopeptide antibiotics” (American Cyanamid Company, priority 2001, dated 2012)", "assay_in_all_cases": "In vitro antibacterial evaluation: minimum inhibitory concentration (MIC), broth dilution method", "format_in_all_cases": "cell-based", "conditions_in_all_cases": "18 hours at 35° C.", "key": {"[1]": {"tested_on": "Streptococcus sp.", "procedure,_shortened": "(§1)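 NCCLS M7-A2 broth dilution with Mueller-Hinton II, testing 64-0.06 μg/mL antibiotic against 5×10^5 CFU/mL inocula. Test strains include recent methicillin-, penicillin- or vancomycin-resistant clinical isolates. MIC is the lowest concentration preventing growth.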"}, "[2]": {"tested_on": "Escherichia coli", "procedure,_shortened": "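Using Muller-Hinton II […] and an inoculum of 5×10^5 CFU/mL, antibiotic dilutions from 64 down to 0.06 μg/mL were tested following NCCLS M7-A2. The MIC is the lowest concentration inhibiting growth, including in methicillin-, penicillin- or vancomycin-resistant clinical isolates.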"}, "[3]": {"tested_on": "Enterococcus sp.", "procedure,_shortened": "as §1"}, "[4]": {"tested_on": "Staphylococcus sp.", "procedure,_shortened": "as §1"}}, "note": "Numbered stars: 1 amine (or outer) side, 2 acyl side, 3 side chain; on linkers, the order of the positions; unused ones are H or OH. Square brackets hold non-standard residues; d marks the D form. Peptide text beside a SMILES is read from it. ξ: configuration not given here. X3 = CC1(C)OCC2OC(N3C(=N)NCC3C(O)C(N[*:1])C(=O)[*:2])C3OC(C)(C)OC3C2O1; ξEnduracididine(βξ-OH,4'ξ) = N=C1NCC(C(O)C(N)C(=O)O)N1; ξPhe(βξ-Me) = CC(c1ccccc1)C(N)C(=O)O"}
{"smiles": "CC(c1ccccc1)C1NC(=O)CNC(=O)C(CO)NC(=O)C(C(O)C2CNC(=N)N2C2OC3COC(C)(C)OC3C3OC(C)(C)OC32)NC(=O)C(C(O)C2CNC(=N)N2)NC(=O)C(Cc2ccc(O)cc2)NC1=O", "note": "(stereo not drawn) [Example 247, Cyclo[glycyl-β-methylphenylalanyltyrosyl-3-(2-iminoimidazolidin-4-yl)seryl-3-(2,3:4,6-diisopropylidenehexopyranosyl)-2-iminoimidazolidin-4-ylserylseryl]] (cyclo(G[ξPhe(βξ-Me)]Y[ξEnduracididine(βξ-OH,4'ξ)][X3]S); configuration not given here)", "values": [{"measurement": "MIC Streptococcus agalactiae (GC 4564)", "setting": "[1]", "value": ">64", "unit": "µg/mL"}, {"measurement": "MIC Streptococcus pneumoniae (ATCC 6301)", "setting": "[1]", "value": ">64", "unit": "µg/mL"}, {"measurement": "MIC Streptococcus pneumoniae (GC 1894)", "setting": "[1]", "value": ">64", "unit": "µg/mL"}, {"measurement": "MIC Streptococcus pneumoniae (GC 4565)", "setting": "[1]; Streptococcus pneumoniae (GC 4565)", "value": ">64", "unit": "µg/mL"}, {"measurement": "MIC Streptococcus pyogenes (GC 4563)", "setting": "[1]", "value": ">64", "unit": "µg/mL"}, {"measurement": "MIC Escherichia coli (ATCC 25922)", "setting": "[2]", "value": ">64", "unit": "µg/mL"}, {"measurement": "MIC Escherichia coli (GC 4559)", "setting": "[2]", "value": ">64", "unit": "µg/mL"}, {"measurement": "MIC Escherichia coli (GC 4560)", "setting": "[2]", "value": ">64", "unit": "µg/mL"}, {"measurement": "MIC Enterococcus avium (GC 4558)", "setting": "[3]", "value": ">64", "unit": "µg/mL"}, {"measurement": "MIC Enterococcus faecalis (ATCC 29212)", "setting": "[3]", "value": ">64", "unit": "µg/mL"}, {"measurement": "MIC Enterococcus faecalis (GC 2242)", "setting": "[3]", "value": ">64", "unit": "µg/mL"}, {"measurement": "MIC Enterococcus faecalis (GC 2691)", "setting": "[3]", "value": ">64", "unit": "µg/mL"}, {"measurement": "MIC Enterococcus faecalis (GC 3059)", "setting": "[3]; Enterococcus faecalis (GC 3059)", "value": ">64", "unit": "µg/mL"}, {"measurement": "MIC Enterococcus faecalis (GC 4552)", "setting": "[3]; Enterococcus faecalis (GC 4552)", "value": ">64", "unit": "µg/mL"}, {"measurement": "MIC Enterococcus faecalis (GC 4553)", "setting": "[3]", "value": ">64", "unit": "µg/mL"}, {"measurement": "MIC Enterococcus faecalis (GC 4554)", "setting": "[3]", "value": ">64", "unit": "µg/mL"}, {"measurement": "MIC Enterococcus faecalis (GC 6189)", "setting": "[3]", "value": ">64", "unit": "µg/mL"}, {"measurement": "MIC Enterococcus faecium (GC 2243)", "setting": "[3]", "value": ">64", "unit": "µg/mL"}, {"measurement": "MIC Enterococcus faecium (GC 4556)", "setting": "[3]", "value": ">64", "unit": "µg/mL"}, {"measurement": "MIC Enterococcus faecium (GC 4557)", "setting": "[3]", "value": ">64", "unit": "µg/mL"}, {"measurement": "MIC Coagulase Negative Staphylococcus (GC 4547)", "setting": "[4]", "value": ">64", "unit": "µg/mL"}, {"measurement": "MIC Coagulase Negative Staphylococcus (GC 4548)", "setting": "[4]", "value": ">64", "unit": "µg/mL"}, {"measurement": "MIC Coagulase Negative Staphylococcus (GC 4549)", "setting": "[4]", "value": ">64", "unit": "µg/mL"}, {"measurement": "MIC Coagulase Negative Staphylococcus (GC 4551)", "setting": "[4]", "value": ">64", "unit": "µg/mL"}, {"measurement": "MIC Coagulase Negative Staphylococcus (GC 6257)", "setting": "[4]", "value": ">64", "unit": "µg/mL"}, {"measurement": "MIC Staphylococcus aureus (ATCC 29213)", "setting": "[4]", "value": ">64", "unit": "µg/mL"}, {"measurement": "MIC Staphylococcus aureus (GC 1131)", "setting": "[4]", "value": ">64", "unit": "µg/mL"}, {"measurement": "MIC Staphylococcus aureus (GC 3051)", "setting": "[4]", "value": ">64", "unit": "µg/mL"}, {"measurement": "MIC Staphylococcus aureus (GC 3053)", "setting": "[4]", "value": ">64", "unit": "µg/mL"}, {"measurement": "MIC Staphylococcus aureus (GC 4541)", "setting": "[4]", "value": ">64", "unit": "µg/mL"}, {"measurement": "MIC Staphylococcus aureus (GC 4542)", "setting": "[4]", "value": ">64", "unit": "µg/mL"}, {"measurement": "MIC Staphylococcus aureus (GC 4544)", "setting": "[4]", "value": ">64", "unit": "µg/mL"}, {"measurement": "MIC Staphylococcus aureus (GC 4545)", "setting": "[4]", "value": ">64", "unit": "µg/mL"}, {"measurement": "MIC Staphylococcus aureus-SMITH (GC 4543)", "setting": "[4]", "value": ">64", "unit": "µg/mL"}, {"measurement": "MIC Staphylococcus haemolyticus (GC 4546)", "setting": "[4]", "value": ">64", "unit": "µg/mL"}]}
{"smiles": "CC(c1ccccc1)C1NC(=O)CNC(=O)C(CO[Si](C)(C)C(C)(C)C)NC(=O)C(C(O)C2CNC(=N)N2C2OC3COC(C)(C)OC3C3OC(C)(C)OC32)NC(=O)C(C(O)C2CNC(=N)N2)NC(=O)C(Cc2ccc(O)cc2)NC1=O", "note": "(stereo not shown) [Example 248]", "values": [{"measurement": "MIC Streptococcus agalactiae (GC 4564)", "setting": "[1]", "value": 64, "unit": "µg/mL"}, {"measurement": "MIC Streptococcus pneumoniae (ATCC 6301)", "setting": "[1]", "value": 64, "unit": "µg/mL"}, {"measurement": "MIC Streptococcus pneumoniae (GC 1894)", "setting": "[1]", "value": 64, "unit": "µg/mL"}, {"measurement": "MIC Streptococcus pyogenes (GC 4563)", "setting": "[1]", "value": 32, "unit": "µg/mL"}, {"measurement": "MIC Escherichia coli (ATCC 25922)", "setting": "[2]", "value": 64, "unit": "µg/mL"}, {"measurement": "MIC Escherichia coli (GC 4559)", "setting": "[2]", "value": 64, "unit": "µg/mL"}, {"measurement": "MIC Escherichia coli (GC 4560)", "setting": "[2]", "value": 8, "unit": "µg/mL"}, {"measurement": "MIC Enterococcus avium (GC 4558)", "setting": "[3]", "value": 8, "unit": "µg/mL"}, {"measurement": "MIC Enterococcus faecalis (ATCC 29212)", "setting": "[3]", "value": 64, "unit": "µg/mL"}, {"measurement": "MIC Enterococcus faecalis (GC 2242)", "setting": "[3]", "value": 64, "unit": "µg/mL"}, {"measurement": "MIC Enterococcus faecalis (GC 2691)", "setting": "[3]", "value": 32, "unit": "µg/mL"}, {"measurement": "MIC Enterococcus faecalis (GC 4553)", "setting": "[3]", "value": 16, "unit": "µg/mL"}, {"measurement": "MIC Enterococcus faecalis (GC 4554)", "setting": "[3]", "value": 64, "unit": "µg/mL"}, {"measurement": "MIC Enterococcus faecalis (GC 6189)", "setting": "[3]", "value": 32, "unit": "µg/mL"}, {"measurement": "MIC Enterococcus faecium (GC 2243)", "setting": "[3]", "value": 32, "unit": "µg/mL"}, {"measurement": "MIC Enterococcus faecium (GC 4556)", "setting": "[3]", "value": 32, "unit": "µg/mL"}, {"measurement": "MIC Enterococcus faecium (GC 4557)", "setting": "[3]", "value": 16, "unit": "µg/mL"}, {"measurement": "MIC Coagulase Negative Staphylococcus (GC 4547)", "setting": "[4]", "value": 16, "unit": "µg/mL"}, {"measurement": "MIC Coagulase Negative Staphylococcus (GC 4548)", "setting": "[4]", "value": 32, "unit": "µg/mL"}, {"measurement": "MIC Coagulase Negative Staphylococcus (GC 4549)", "setting": "[4]", "value": 32, "unit": "µg/mL"}, {"measurement": "MIC Coagulase Negative Staphylococcus (GC 4551)", "setting": "[4]", "value": 32, "unit": "µg/mL"}, {"measurement": "MIC Coagulase Negative Staphylococcus (GC 6257)", "setting": "[4]", "value": 16, "unit": "µg/mL"}, {"measurement": "MIC Staphylococcus aureus (ATCC 29213)", "setting": "[4]", "value": 32, "unit": "µg/mL"}, {"measurement": "MIC Staphylococcus aureus (GC 1131)", "setting": "[4]", "value": 32, "unit": "µg/mL"}, {"measurement": "MIC Staphylococcus aureus (GC 3051)", "setting": "[4]", "value": 64, "unit": "µg/mL"}, {"measurement": "MIC Staphylococcus aureus (GC 3053)", "setting": "[4]", "value": 64, "unit": "µg/mL"}, {"measurement": "MIC Staphylococcus aureus (GC 4541)", "setting": "[4]", "value": 32, "unit": "µg/mL"}, {"measurement": "MIC Staphylococcus aureus (GC 4542)", "setting": "[4]", "value": 64, "unit": "µg/mL"}, {"measurement": "MIC Staphylococcus aureus (GC 4544)", "setting": "[4]", "value": 32, "unit": "µg/mL"}, {"measurement": "MIC Staphylococcus aureus (GC 4545)", "setting": "[4]", "value": 32, "unit": "µg/mL"}, {"measurement": "MIC Staphylococcus aureus-SMITH (GC 4543)", "setting": "[4]", "value": 32, "unit": "µg/mL"}, {"measurement": "MIC Staphylococcus haemolyticus (GC 4546)", "setting": "[4]", "value": 16, "unit": "µg/mL"}]}
